From US7229621B2, “Method to enhance the immunogenicity of an antigen” (Torrey Pines Institute for Molecular Studies, priority 1998, dated 2007)
Where “and” joins values, the source holds several entries; their conditions need not be identical. Equal entries are not always repeated.

Assays:
EL4 tumor cells = test: EL4 parent tumor growth (negative control tumor) after intravaginal immunization; format: in vivo, C57BL/6 mice; conditions: SIINFEKL in acetone and dibutyl phthalate intravaginally; EL4 lacks ovalbumin
Text: The mucous membranes lack the tough barrier posed by the stratum corneum of the skin. […] The EL4 parent tumor cell line, lacking chicken ovalbumin, was used as a negative control; no immunity against the EL4 tumor cells was seen. Thus, the inventors' hypothesis regarding penetration of the stratum corneum was confirmed; the […] peptide was not effectively reaching the immature dendritic cells, known as Langerhans cells, underlying the stratum corneum.

E.G7-OVA cells [1] = conditions: endogenous SIINFEKL, reported by Rotzschke et al. and Malarkannan et al.; cited from earlier work
[2] = system: dendritic cells in draining inguinal lymph nodes; test: Antigen-bearing dendritic cells in lymph nodes after ultrasound application of soluble peptide followed by migration inducer; format: in vivo, C57BL/6 mice
Procedure: FIG. 9 illustrates the effect of delivering a peptide antigen ([…]) into the skin via ultrasound, followed by topical application of dibutyl phthalate and acetone to maximize the induction of dendritic cell migration and maturation. […] (240 μg) in DMSO, or DMSO alone, was applied to the shaved abdominal skin of C57BL/6 mice and covered with a hydrogel, into which was inserted a 13 mm diameter ultrasound transducer. Ultrasound was applied at 20 kHz and 1.6 W/cm^2, in 1 second pulses every 2 seconds for 6 minutes, for a total ultrasound dose of 288 J/cm^2. Two hours later, a 50:50 v/v solution of acetone and dibutyl phthalate was applied topically to the same area. Two days later, the skin draining inguinal lymph nodes were removed and the cells analyzed by immunofluorescent flow cytometry.
The antigen-bearing dendritic cells that had migrated to the draining lymph node are shown in the upper right quadrant of each dot plot. The dendritic cells in the lymph node were identified by their characteristic light scatter properties and exceptionally high surface expression of MHC class II (FL1), while the antigenic epitope was detected using the K^b:[…]-specific mAb 25-D1.16 (FL2), as described above.
(§1) As stated previously, whether mature antigen-bearing dendritic cells will be encountered by and activate naive T cells in the lymph node is likely to depend not only on the number of antigen-bearing dendritic cells that enter the node, but also on the density of MHC:peptide complexes expressed on their membranes. To estimate the density of peptide:MHC complexes on the immigrant dendritic cells generated by this procedure, we compared the fluorescence intensity of various cell populations detected by the peptide:MHC-specific mAb, 25-D1.16, using identical staining conditions and flow cytometer settings. The results are shown in Table IV, providing the number of specific peptide:MHC complexes expressed on the plasma membrane of dendritic cells after various treatments in vitro or in vivo.

E.G7-OVA cells [3] = test: K^b:[…] complexes on E.G7-OVA cells (mAb 25-D1.16 fluorescence standard); format: cell-based, C57BL/6; conditions: endogenous SIINFEKL
Text: as §1
The tumor cell, E.G7-OVA, is the C57BL/6 EL4 thymoma transfected with the complete gene for chicken ovalbumin (OVA). […] The number of those complexes expressed per cell has been measured independently by two different laboratories and reported to be 88 (Rotzschke et al. 1991 Eur. J. Immunol. 21:2891–2894) and 90 (Malarkannan et al. 1995 J. Exp. Med. 182:1739–1750). Therefore, the fluorescence intensity of E.G7-OVA could be used as a standard by which to estimate the number of K^b:[…] complexes expressed on the dendritic cell populations identified in the present study. […]

[4] = system: dendritic cells in draining lymph node; test: Antigen-bearing dendritic cells in lymph nodes after injection of soluble protein or peptide with or without topical migration inducer; format: in vivo, mice
Procedure: The injections were followed 2 hours later by topical application of dibutyl phthalate and acetone to the abdominal skin. The antigen-bearing dendritic cells that had migrated to the draining lymph node two days later were analyzed as described above and are shown in the upper right quadrant of each dot plot.
This was followed 2 hrs later by: A) no further treatment, or B) topical application of dibutyl phthalate and acetone to the abdominal skin. The antigen-bearing dendritic cells that had migrated to the draining lymph node two days later are shown in the upper right quadrant of each dot plot.
As stated previously, whether mature antigen-bearing dendritic cells will be encountered by and activate naive T cells in the lymph node is likely to depend not only on the number of antigen-bearing dendritic cells that enter the node, but also on the density of MHC:peptide complexes expressed on their membranes.

[5] = system: dendritic cells in draining lymph node; test: Antigen-bearing dendritic cells in lymph node after aqueous antigen applied to skin with DBP and acetone; format: in vivo; conditions: aqueous solution applied to the skin with topical DBP and acetone (data not shown)
Text: Similarly, when an aqueous solution of a […] peptide or OVA protein antigen was applied to the skin along with topical application of the migration inducer, DBP and acetone, no detectable antigen-bearing (i.e., K^b:[…] positive) dendritic cells appeared in the draining lymph node (data not shown).

[6] = 240 μg in DMSO, ultrasound 20 kHz, acetone/dibutyl phthalate 2 hours later, nodes two days later
[7] = immigrant Langerhans cells from inguinal lymph nodes 48 hrs after 240 μg SIINFEKL by ultrasound
[8] = 144 μg in 150 μl HBSS injected, no further treatment, two days later
[9] = 144 μg injected, topical dibutyl phthalate and acetone 2 hrs later, two days later
[10] = 20 μl of 0.5 mM in HBSS injected, dibutyl phthalate and acetone 2 hours later, two days later
[11] = immigrant Langerhans cells from inguinal lymph nodes 48 hrs after 4.8 μg SIINFEKL injected

SIINFEKL [eight amino acid peptide OVA257-264 of chicken ovalbumin, tumor-associated peptide antigen presented by K^b]
immunity against EL4 tumor cells (EL4 tumor cells): no immunity | Median No. of Complexes/Cell (E.G7-OVA cells [1]): 88 complexes/cell and 90 complexes/cell and 89^d complexes/cell | Dendritic Cells per Lymph Node [2, 6]: 51,968 | K^b:SIINFEKL^+ DC per LymphNode [2, 6]: 13,216 | Total Cells per Lymph Node [2, 6]: 5.6 × 10^6 | Enhancement ([2]; K^b:SIINFEKL+ DC versus DMSO alone): 5× | Median No. of Complexes/Cell [2, 7]: 633 complexes/cell | Median Specific Fl. Intensity [2, 7]: 32 | cells reactive with mAb 25-D1.16 relative to absence of SIINFEKL ([2]; ultrasound-mediated topical exposure to SIINFEKL): five times | Median Specific Fl. Intensity (E.G7-OVA cells [3]): 4.5 | Dendritic Cells per Lymph Node [4, 8]: 3,024 | K^b:SIINFEKL^+ DC per LymphNode [4, 8]: 504 | Total Cells per Lymph Node [4, 8]: 6.3 × 10^6 | Dendritic Cells per Lymph Node [4, 9]: 55,912 | K^b:SIINFEKL^+ DC per LymphNode [4, 9]: 22,239 | Total Cells per Lymph Node ([4]; 20 μl of 0.5 mM in HBSS injected at two sites in abdominal skin, dibutyl phthalate and acetone topically 2 hours later, two days later): 1.1 × 10^7 | Dendritic Cells per Lymph Node [4, 10]: 162,628 | K^b:SIINFEKL^+ DC per LymphNode [4, 10]: 89,598 | Enhancement ([4]; K^b:SIINFEKL+ DC versus HBSS injection): 44× | Enhancement ([4]; SIINFEKL alone (reference)): 1× | increase in the total number of dendritic cells per lymph node ([4]; SIINFEKL injection followed by topical migration/maturation inducer versus without): 18.5 fold | increase in antigen-bearing dendritic cells per lymph node ([4]; SIINFEKL injection with versus without migration/maturation inducer): 44 fold | Median No. of Complexes/Cell [4, 11]: 860 complexes/cell | Median Specific Fl. Intensity [4, 11]: 43 | increase in the number of antigen-bearing dendritic cells in the draining lymph nodes ([4]; injection followed by topical induction of migration, two days later): 44 fold | antigen-bearing (K^b:SIINFEKL positive) dendritic cells in the draining lymph node [5]: no detectable
